Patent US4839374A, “4-((Bicyclic heterocyclyl)-methyl and -hetero)-piperidines” (Janssen Pharmaceutica, N.V., priority 1987, dated 1989)

test system: compound 48/80-induced lethality; assay: Protection of rats from compound 48/80-induced lethality; type: in vivo, rats of an inbred Wistar strain; conditions: Rattus norvegicus, 4 h, read-out: Compound 48/80 lethality test in rats ED50, s.c. or p.o. 1 h before compound 48/80 0.5 mg/kg i.v.; protection of 50% of animals, survival after 4 hours
Description: Protection of rats from compound 48/80-induced lethality
The protection from compound 48/80-induced lethal circulatory collapse appears to be a simple way of evaluating quantitatively the antihistaminic activity of test compounds. Male rats of an inbred Wistar strain, weighing 240-260 g were used in the experiment. After overnight starvation the rats were transferred to conditioned laboratories (temp.=21±1° C., relative humidity=65+5%). The rats were treated subcutaneously or orally with a test compound or with the solvent (NaCl solution, 0.9%). […] Survival after 4 hours is therefore considered to be a safe criterion of a protective effect of drug administration. The ED50 -values of the compounds of formula (I) are listed in the first column of tables 1 to 4. Said ED50 -values are the values in mg/kg body weight at which the tested compounds protect 50% of the tested animals against compound 48/80-induced lethality. The compounds of formula (I) and the pharmaceutically acceptable acid addition salts thereof are also potent serotonin-antagonists. The potency of the subject compounds as serotonin-antagonists is clearly evidenced by the results obtained in the following tests wherein the antagonistic activity of the subject compounds on the effect of serotonin is examined.

First: Cc1nc2sccn2c(=O)c1CCN1CCC(Cc2nc3cccnc3n2Cc2ccco2)CC1 [Compound 173]
Second: Cc1nc2n(c(=O)c1CCN1CCC(Cc3nc4ccccc4n3Cc3ccco3)CC1)CCS2 [Compound 163]
The ED50 of the first is 2-fold lower: 0.01 mg/kg for the first, 0.02 mg/kg for the second.

Cn1c(=O)c2c(ncn2CCN2CCC(Cc3nc4cccnc4n3Cc3ccco3)CC2)n(C)c1=O [Compound 176] and O=c1[nH]c2ccccc2n1CCCN1CCC(Cc2nc3cccnc3n2Cc2ccco2)CC1 [Compound 152] are the same in ED50: 0.04 mg/kg for the first, 0.04 mg/kg for the second.

Going from CNCCN1CCC(Cc2nc3ccccc3n2Cc2ccc(F)cc2)CC1 [Compound 513, 4[[1-[(4-fluorophenyl)methyl]-1H-benzimidazol-2-yl]methyl]-N-methyl-1-piperidineethanamine] to NC(=O)CN1CCC(Cc2nc3ccccc3n2Cc2ccc(F)cc2)CC1 [Compound 149, 4-[[1-[(4-fluorophenyl)methyl]-1H-benzimidazol-2-yl]methyl]-1-piperidineacetamide], the ED50 falls from 0.08 mg/kg to 0.04 mg/kg (2-fold).

Compared with COc1ccc(Cn2c(CC3CCN(CCO)CC3)nc3ccccc32)cc1 [Compound 110, 4-[[1-[(4-methoxyphenyl)methyl]-1H-benzimidazol-2-yl]methyl]-1-piperidineethanol], COc1ccc(CCN2CCC(Cc3nc4ccccc4n3Cc3ccc(C)o3)CC2)cc1 [Compound 266] is 2-fold higher in ED50: 0.02 mg/kg for the first, 0.04 mg/kg for the second.

Fc1ccc(Cn2c(CC3CCN(Cc4cn5cccnc5n4)CC3)nc3ccccc32)cc1 [Compound 183] and Fc1ccc(Cn2c(CC3CCN(CCNc4cccnn4)CC3)nc3ccccc32)cc1 [Compound 500, N-[2-[4-[[1-[(4-fluorophenyl)methyl]-1H-benzimidazol-2-yl]methyl]-1-piperidinyl]ethyl]-3-pyridazinamine] are the same in ED50: 0.01 mg/kg for the first, 0.01 mg/kg for the second.

Going from O=c1[nH]c2ccccc2n1CCCN1CCC(Cc2nc3ccccc3n2Cc2ccco2)CC1 [Compound 139, 1-[3-[4-[[1-(2-furanylmethyl)-1H-benzimidazol-2-yl]methyl]-1-piperidinyl]propyl]-1,3-dihydro-2H-benzimidazol-2-one] to CC(=O)N(C)c1ccccc1C(=O)NCCN1CCC(Cc2nc3ccccc3n2Cc2ccco2)CC1 [Compound 511], the ED50 rises from 0.08 mg/kg to 0.16 mg/kg (2-fold).

Going from Cc1nc(CCN2CCC(Cc3nc4ccccc4n3Cc3ccc(F)cc3)CC2)cs1 [Compound 459, 1-[(4-fluorophenyl)methyl]-2-[[1-[2-(2-methyl-4-thiazolyl)ethyl]-4-piperidinyl]methyl]-1H-benzimidazole] to CCn1nnn(CCN2CCC(Cc3nc4ccccc4n3Cc3ccc(F)cc3)CC2)c1=O [Compound 123], the ED50 falls from 0.02 mg/kg to 0.01 mg/kg (2-fold).

Compared with Cc1ccc(Cn2c(CC3CCNCC3)nc3ccccc32)cc1 [Compound 42, 1-[(4-methylphenyl)methyl]-2-(4-piperidinylmethyl)-1H-benzimidazole], c1ccc(Cn2c(CC3CCNCC3)nc3ccccc32)cc1 [Compound 40, 1-(phenylmethyl)-2-(4-piperidinylmethyl)-1H-benzimidazole] is 4-fold higher in ED50: 0.02 mg/kg for the first, 0.08 mg/kg for the second.

c1ccc(Cn2c(CC3CCN(CCNc4ncccn4)CC3)nc3cccnc32)cc1 [Compound 345] and c1ccc(Cn2c(CC3CCN(CCNc4ncccn4)CC3)nc3cccnc32)nc1 [Compound 340] are the same in ED50: 0.08 mg/kg for the first, 0.08 mg/kg for the second.

CCNC(=O)NCCN1CCC(Cc2nc3cccnc3n2Cc2ccc(F)cc2)CC1 [Compound 429, N-ethyl-N'-[2-[4-[[3-[(4-fluorophenyl)methyl]-3H-imidazo[4,5-b]pyridin-2-yl]-methyl]-1-piperidinyl]ethyl]urea] and C=CCN1CCC(Cc2nc3cccnc3n2Cc2ccc(F)cc2)CC1 [Compound 142, 3-[(4-fluorophenyl)methyl]-2-[[1-(2-propenyl)-4-piperidinyl]methyl]-3H-imidazo-[4,5-b]pyridine] are the same in ED50: 0.02 mg/kg for the first, 0.02 mg/kg for the second.

Compared with COc1ccc(CCN2CCC(Cc3nc4ccccc4n3CCc3ccccc3)CC2)cc1 [Compound 516, 2-[[1-[2-(4-methoxyphenyl)ethyl]-4-piperidinyl]methyl]-1-(2-phenylethyl)-1H-benzimidazole], CN(CCN1CCC(Cc2nc3ccccc3n2Cc2ccc(F)cc2)CC1)Cc1ccccc1 [Compound 512] is 2-fold lower in ED50: 0.16 mg/kg for the first, 0.08 mg/kg for the second.

Going from Fc1ccc(Cn2c(CC3CCN(Cc4ccccc4)CC3)nc3cccnc32)cc1 [Compound 8, 3-[(4-fluorophenyl)methyl]-2-[[1-(phenylmethyl)-4-piperidinyl]-methyl]-3H-imidazo[4,5-b]pyridine] to N#CCN1CCC(Cc2nc3cccnc3n2Cc2ccc(F)cc2)CC1 [Compound 290], the ED50 rises from 0.04 mg/kg to 0.08 mg/kg (2-fold).

Fc1ccc(Cn2c(CC3CCN(CCSc4nc5cnccc5s4)CC3)nc3ccccc32)cc1 [Compound 388, 2-[[2-[4-[[1-[(4-fluorophenyl)methyl]-1H-benzimidazol-2-yl]methyl]-1-piperidinyl]ethyl]thio]thiazolo[4,5-c]pyridine] and Cc1nc2ccccn2c(=O)c1CCN1CCC(Cc2nc3cnccc3n2Cc2ccc(F)cc2)CC1 [Compound 274] are the same in ED50: 0.16 mg/kg for the first, 0.16 mg/kg for the second.

Compared with O=C(Cc1ccsc1)NCCN1CCC(Cc2nc3ccccc3n2Cc2ccc(F)cc2)CC1 [Compound 440, N-[2-[4-[[1-[(4-fluorophenyl)methyl]-1H-benzimidazol-2-yl]methyl]-1-piperidinyl]ethyl]-3-thiopheneacetamide], O=C(NCCN1CCC(Cc2nc3ccccc3n2Cc2ccc(F)cc2)CC1)c1ccoc1 [Compound 434, N-[2-[4-[[1-[(4-fluorophenyl)methyl]-1H-benzimidazol-2-yl]methyl]-1-piperidinyl]ethyl]-3-furancarboxamide] is 8-fold lower in ED50: 0.02 mg/kg for the first, 0.0025 mg/kg for the second.

Compared with COc1ccc(CCN2CCC(Cc3nc4cnccc4n3Cc3ccc(F)cc3)CC2)cc1 [Compound 202, 1-[(4-fluorophenyl)methyl]-2-[[1-[2-(4-methoxyphenyl)ethyl]-4-piperidinyl]-methyl]-1H-imidazo-[4,5-c]pyridine], Fc1ccc(Cn2c(CC3CCN(CCNc4nc5ccccc5[nH]4)CC3)nc3ccccc32)cc1 [Compound 328, N-[2-[4-[[1-[(4-fluorophenyl)methyl]-1H-benzimidazol-2-yl]methyl]-1-piperidinyl]ethyl]1H-benzimidazol-2-amine] is 2-fold higher in ED50: 0.08 mg/kg for the first, 0.16 mg/kg for the second.

c1csc(Cn2c(CC3CCNCC3)nc3ccccc32)c1 [Compound 64, 2-(4-piperidinylmethyl)-1-(2-thienylmethyl)-1H-benzimidazole] and CN1CCC(Cc2nc3ccccc3n2Cc2ccccc2)CC1 [Compound 93] are the same in ED50: 0.04 mg/kg for the first, 0.04 mg/kg for the second.

Going from CC(C)N1CCC(Cc2nc3ccccc3n2Cc2ccc(F)cc2)CC1 [Compound 83] to Cc1ccc(Cn2c(CC3CCN(CCNc4nccs4)CC3)nc3ccccc32)cc1 [Compound 364], the ED50 rises from 0.01 mg/kg to 0.04 mg/kg (4-fold).

Compared with O=c1[nH]c2ccccc2n1CCCN1CCC(Sc2nc3ccccc3n2Cc2ccc(F)cc2)CC1 [Compound 255], O=c1c2ccccc2[nH]c(=S)n1CCN1CCC(Cc2nc3cccnc3n2Cc2ccc(F)cc2)CC1 [Compound 463, 3-[2-[4-[[3-[(4-fluorophenyl)methyl]-3H-imidazo[4,5-b]pyridin-2-yl]methyl]-1-piperidinyl]ethyl]-2,3-dihydro-2-thioxo-4(1H)quinazolinone] is 2-fold lower in ED50: 0.16 mg/kg for the first, 0.08 mg/kg for the second.

Compared with O=c1oc2ccccc2cc1CCN1CCC(Cc2nc3cccnc3n2Cc2ccco2)CC1 [Compound 174], c1cnc(NCCN2CCC(Cc3nc4ccccc4n3Cc3cscn3)CC2)nc1 [Compound 338] is 2-fold higher in ED50: 0.01 mg/kg for the first, 0.02 mg/kg for the second.
